Laboratory results from publication PMC6678576, “Spectroscopic Characterisation of the Naphthalene Dioxygenase from Rhodococcus sp. Strain NCIMB12038” (International Journal of Molecular Sciences, 2019).

Biological target: T1, naphthalene 1,2-dioxygenase (NDO; ISPNAR) from Rhodococcus sp. strain NCIMB12038 (Rhodococcus sp. NCIMB 12038, UniProt Q9X3R9)
T1 construct: gene narAa; native oxygenase component purified from naphthalene-grown Rhodococcus cells; alpha3beta3; Rieske [2Fe-2S] and mononuclear iron; with Naphthalene 1,2-dioxygenase small (beta) subunit
T1 sequence (Q9X3R9 1-470): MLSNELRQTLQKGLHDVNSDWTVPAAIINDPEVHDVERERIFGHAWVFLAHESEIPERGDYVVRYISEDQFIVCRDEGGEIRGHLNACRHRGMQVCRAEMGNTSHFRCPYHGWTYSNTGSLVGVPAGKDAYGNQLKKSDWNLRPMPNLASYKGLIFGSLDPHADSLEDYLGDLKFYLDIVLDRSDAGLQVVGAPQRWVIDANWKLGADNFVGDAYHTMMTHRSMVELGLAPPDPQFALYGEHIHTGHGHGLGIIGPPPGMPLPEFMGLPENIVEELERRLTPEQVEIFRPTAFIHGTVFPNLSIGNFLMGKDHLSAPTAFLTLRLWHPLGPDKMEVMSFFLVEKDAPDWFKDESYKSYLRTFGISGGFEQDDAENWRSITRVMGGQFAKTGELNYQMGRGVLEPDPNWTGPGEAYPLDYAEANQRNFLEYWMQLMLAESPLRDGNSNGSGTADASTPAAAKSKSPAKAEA
T1 sequence (Q7BSK6 1-172 partner): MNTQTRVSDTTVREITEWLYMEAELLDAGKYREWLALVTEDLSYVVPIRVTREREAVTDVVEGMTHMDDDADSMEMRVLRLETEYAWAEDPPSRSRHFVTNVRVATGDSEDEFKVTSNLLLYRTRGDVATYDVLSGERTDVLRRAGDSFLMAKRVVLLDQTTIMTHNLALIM
Test: EPR ([…] K) and UV-Vis of single turnover and peroxide shunt
Format: binding
Conditions: dithionite-reduced NDO with O2-saturated naphthalene, or H2O2 peroxide shunt; no reductase or ferredoxin; 50 mM Tris-HCl pH 7.8, 10% ethanol, 10% glycerol, 0.5 mM DTT

SMILES: c1ccc2ccccc2c1 [naphthalene]
- EPR (20 K) and UV-Vis of single turnover and peroxide shunt: NDO, with reduced Rieske and mononuclear iron centres, is able to react with naphthalene
